This note sets out measurements from ChEMBL document CHEMBL1131729, “Isolation and synthesis of a novel immunosuppressive 17alpha-substituted dammarane from the flour of the Palmyrah palm (Borassus flabellifer)” (Bioorg Med Chem Lett, 1999).

Assay [1] concerns Mus musculus. The assay is described as follows: Compound was tested […] for immunosuppressive activity in the serum free mixed lymphocyte reaction. The format is functional.
The subject of assay [2] is Mus musculus. The assay is described as follows: In vivo immunosuppressive activity in the delayed type hypersensitivity model induced by SRBC-TH cells in mouse after peroral administration. In kind it is functional. Particulars: po.

≈ marks a conversion by molar mass, not a printed value.

What is called IC50 is the concentration at which inhibition is half-maximal. As usually defined, the ED50 is the midpoint of the dose-response relation. A higher ED50 goes with weaker potency. In the case of `C=C(C/C=C/C(C)(C)O)[C@H]1CC[C@]2(C)[C@@H]1CC[C@@H]1[C@@]3(C)CC[C@H](O)C(C)(C)[C@@H]3CC[C@]12C`, half-maximal inhibition in the assay on Mus musculus [1] (IC50) required 0.8 µg/mL (≈ 1.81 µM). For the same compound, in the assay on Mus musculus [2], the 50% effect level (ED50) was put at a dose of 10 mg/kg.

For the compound `C=C(C/C=C/C(C)(C)O)[C@@H]1CC[C@]2(C)[C@@H]1CC[C@@H]1[C@@]3(C)CC[C@H](O)C(C)(C)[C@@H]3CC[C@]12C`, the concentration for half-maximal inhibition (IC50) in the assay on Mus musculus [1] came out at 0.01 µg/mL (≈ 0.0226 µM). The compound also registered an ED50 with Mus musculus [2] of 0.04 mg/kg.
